# Reference: the NIST ThermoML archive (doi:10.1021/je0302248)
# Numbers after ± are expanded uncertainties.
# Settings: Liquid
vapor or sublimation pressure (319.5 K) [kPa],vapor or sublimation pressure (336.5 K) [kPa],vapor or sublimation pressure (393.4 K) [kPa],vapor or sublimation pressure (419.2 K) [kPa],Structure (SMILES)
24 ± 7.2,53.32 ± 16,,,CCO [ethanol]
,,24 ± 7.2,53.32 ± 16,CCO[Si](OCC)(OCC)OCC [tetraethoxysilane]
